The subject of experiment [1] is SPM-1-expressing isolates. As to the kind of experiment: Clinical isolate screening with meropenem. It is filed as cell-based, Enterobacteriaceae, Acinetobacter spp. and Pseudomonas spp. Conditions: meropenem 2 μg/ml, AM-A 8 μg/ml. Here is the method:
Various concentrations of AM-A were chosen in combination with 2 mg/L of meropenem which is the EUCAST breakpoint for resistance^28. Synergistic properties of the two compounds were examined in a micro-titre tray using BHI as the growth medium (Oxford Science Park, England) and an inoculum of 0.5 MacFarland. All plates contained the control strains Escherichia coli ATCC 25922 and Pseudomonas aeruginosa ATCC 27853. Overall, 226 non-clonal clinical isolates (Enterobacteriaceae, P. aeruginosa and Acinetobacter spp.) were challenged containing one of the following MBLs: SPM-1 (n=17), AIM-1 (n=8), NDM-1 (n=67), VIM-type (n=114) or IMP-type (n=20). […] Plates were incubated at 37° C. and read after 18 hrs.

The target of experiment [2] is T1, NDM-1 (Klebsiella pneumoniae, UniProt C7C422). Description: Incubation of AM-A with metalloenzymes in Zn2+-depleted buffer. On the set-up: All β-lactamase overexpression constructs were generated without the leader peptide in a pET-28b plasmid containing a N-terminal His Tag; His tag (N, cleaved yes); SUMO (implied by the use of SUMO protease) (N, cleaved yes); made in house; host or cells: E. coli BL21(DE3). As to conditions: extended incubation, AM-A 0.5 mM. It is filed as biochemical. Here is the method:
Enzyme (500 nM) was incubated with AM-A (500 μM) for 10 minutes. 20 μL of the above was diluted with 180 μL nitrocefin or FAPGG substrate for the following final concentrations: Enzyme (50 nM), FAPGG (50 μM)/nitrocefin (20 μM), AM-A (50 μM). Buffer (50 mM HEPES pH 7.5, 300 mM NaCl) was stirred overnight with 2 g/100 mL Chelex-100 (Biorad; Richmond, Calif.). Assays were read in 96-well microplate format at 490 nm using a Spectramax reader (Molecular Devices) at 37° C.

The target of experiment [3] is T1, NDM-1. Description: Inactivation kinetics. In kind it is biochemical. On the set-up: All β-lactamase overexpression constructs were generated without the leader peptide in a pET-28b plasmid containing a N-terminal His Tag; His tag (N, cleaved yes); SUMO (implied by the use of SUMO protease) (N, cleaved yes); made in house; host or cells: E. coli BL21(DE3). How it is done: NDM-1 (50 nM) was added to 20 μM nitrocefin containing AM-A in serial ½ dilutions from 8 μM. The assay was performed in 50 mM HEPES pH 7.5, 200 μL final volume. The assay was read in 96-well microplate format at 490 nm using a Spectramax reader (Molecular Devices) for 10 minutes at 37° C. VIM-2 (10 nM) was added to 20 μM nitrocefin containing AM-A in serial ½ dilutions from 16 μM. The assay was performed in 50 mM HEPES pH 7.5, 200 μL final volume. The assay was read in 96-well microplate format at 490 nm using a Spectramax reader (Molecular Devices) for 10 minutes at 37° C. as reported previously. For all assays experiments the offset between reaction initiation and the first read was ˜6s.
Rate constants characterizing the inactivation of enzyme were calculated based on the dependence of the pseudo-first order rate constant, ki, upon AM-A concentration according to the following model:
[formula] where E•Zn, A, E•Zn•A, and Zn•A are the active metalloenzyme, AM-A, the ternary metalloenzyme-AM-A complex, and AM-A-metal complex, respectively. Ki represents the dissociation constant of the ternary complex and k+2 is the rate constant for dissociation of ternary complex into inactivated enzyme (Einact) and AM-A-Zn complex. […]
[formula] […] The individual values of Ki and k+2 were determined by fitting the value of ki to equation 2 as described previously^25: […]

The target in experiment [4] is T2, ACE from rabbit lung (Oryctolagus cuniculus, UniProt P12822).
T2 construct: as well as ACE from rabbit lung; from tissue; host or cells: rabbit lung
As to the kind of experiment: IC50 enzyme inhibition assay, FAPGG reporter substrate. It is filed as biochemical. Conditions: concentration-response assays. How it is done:
Enzyme (NDM-1, 5 nM; VIM-2, 500 pM; CTX-M-15, 500 pM; KPC-2, 5 nM; OXA-48, 1 nM; TEM-1, 100 pM; ACE, 50 nM) was mixed with 30 μM nitrocefin (100 μM nitrocefin for TEM-1; 250 µM furanacryloyl-L-phenylalanylglycylglycine [FAPGG] for ACE^24) after a 5-10 minute preincubation with AM-A. Metallo-enzymes were supplemented with 10 μM ZnSO4. Assays were read in 96-well microplate format at 490 nm using a Spectramax reader (Molecular Devices) at 30-37° C.
E. coli strain BW25113 was modified by deletion of the bamB and tolC genes so as to increase permeability to and reduce efflux of small molecules. This strain was then further modified by the single-copy chromosomal insertion of the blaNDM-1 gene under control of the pLac promoter. Microbial natural product extracts were screened against this strain in the presence of sublethal ¼ MIC meropenem. AM-A was purified from a hit extract and its structure elucidated by NMR, mass spectrometry and polarimetry. IC50 values for AM-A were determined using nitrocefin (for MBLs and Ser BLs) and furanacryloyl-L-phenylalanylglycylglycine (for ACE)^21 as reporter substrates against the following purified enzymes: MBLs IMP-7, VIM-2, and NDM-1; SBLs CTX-M-15, KPC-2, OXA-48, and TEM-1; as well as ACE from rabbit lung. […] FIC values were determined using standard methods^27. […]

pKi: −log10 of the molar value. Entries after “also recorded” stand apart in the source; their conditions may differ.

The term pKi denotes the negative decadic logarithm of the Ki, by convention in mol/L. Low values mean a high Ki, high ones a low Ki.

T1 sequence (C7C422 29-270 limits assumed): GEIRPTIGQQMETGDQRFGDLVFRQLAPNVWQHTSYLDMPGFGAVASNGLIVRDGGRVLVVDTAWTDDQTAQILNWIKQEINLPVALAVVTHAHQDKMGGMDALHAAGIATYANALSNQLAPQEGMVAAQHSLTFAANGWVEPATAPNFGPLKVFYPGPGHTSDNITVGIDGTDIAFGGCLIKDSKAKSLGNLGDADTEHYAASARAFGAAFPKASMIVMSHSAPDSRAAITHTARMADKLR
T2 sequence (P12822 34-1310): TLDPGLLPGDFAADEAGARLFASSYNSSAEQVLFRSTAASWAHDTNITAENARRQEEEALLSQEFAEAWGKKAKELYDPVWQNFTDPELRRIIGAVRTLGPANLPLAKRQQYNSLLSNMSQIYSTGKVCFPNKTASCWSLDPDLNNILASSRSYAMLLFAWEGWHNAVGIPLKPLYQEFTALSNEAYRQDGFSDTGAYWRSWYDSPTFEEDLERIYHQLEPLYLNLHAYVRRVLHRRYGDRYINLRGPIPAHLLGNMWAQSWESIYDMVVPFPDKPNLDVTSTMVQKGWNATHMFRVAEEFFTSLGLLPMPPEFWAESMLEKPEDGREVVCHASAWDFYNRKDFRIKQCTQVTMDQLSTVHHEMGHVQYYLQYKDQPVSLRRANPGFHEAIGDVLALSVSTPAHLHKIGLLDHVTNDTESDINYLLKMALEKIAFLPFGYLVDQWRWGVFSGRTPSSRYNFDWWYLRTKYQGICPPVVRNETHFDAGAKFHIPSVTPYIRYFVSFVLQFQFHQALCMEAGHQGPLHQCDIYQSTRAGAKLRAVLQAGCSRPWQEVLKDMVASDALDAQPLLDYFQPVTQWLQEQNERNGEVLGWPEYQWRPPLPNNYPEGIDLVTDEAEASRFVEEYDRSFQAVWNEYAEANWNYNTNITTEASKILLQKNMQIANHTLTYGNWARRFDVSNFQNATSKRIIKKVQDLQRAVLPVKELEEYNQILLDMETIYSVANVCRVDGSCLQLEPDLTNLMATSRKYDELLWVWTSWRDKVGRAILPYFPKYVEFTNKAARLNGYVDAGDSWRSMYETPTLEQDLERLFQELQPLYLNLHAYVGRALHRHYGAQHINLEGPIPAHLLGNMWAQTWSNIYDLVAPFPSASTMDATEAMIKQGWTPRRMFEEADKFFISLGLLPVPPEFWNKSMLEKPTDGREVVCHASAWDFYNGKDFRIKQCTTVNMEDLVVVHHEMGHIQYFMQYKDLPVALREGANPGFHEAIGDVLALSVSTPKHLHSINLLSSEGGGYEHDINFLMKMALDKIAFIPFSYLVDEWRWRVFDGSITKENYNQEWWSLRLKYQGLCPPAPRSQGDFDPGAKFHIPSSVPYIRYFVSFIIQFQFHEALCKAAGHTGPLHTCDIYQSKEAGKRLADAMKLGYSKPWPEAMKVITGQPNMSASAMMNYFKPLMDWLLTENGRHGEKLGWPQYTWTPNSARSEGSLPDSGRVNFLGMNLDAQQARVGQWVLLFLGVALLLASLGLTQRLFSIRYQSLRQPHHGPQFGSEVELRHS

For the molecule `N[C@H](CN[C@H](CN[C@@H](CC(=O)O)C(=O)O)C(=O)O)C(=O)O` [AM-A, aspergillomarasmine A], the “potentiation of meropenem / susceptibility to combination” value in experiment [1] was “very little potentiation; also recorded: remained resistant”. The “inactivation of NDM-1” value in experiment [2] is on record as “complete inactivation”. The molecule also showed a pKi in experiment [3] of 7.96. Moreover, the “k+2 (inactivation rate constant)” value in experiment [3] (time-dependent inactivation) was determined as 0.0062 s⁻¹. The “reduction of activity of rabbit lung ACE” value in experiment [4] is around 35%.

These data come from patent US10016383B2, “Inhibitors of metallo-β-lactamase-enzymes” (McMaster University, priority 2013, dated 2018).
